From publication PMC3206016, “Putting into Practice Domain-Linear Motif Interaction Predictions for Exploration of Protein Networks” (PLoS ONE, 2011)
“And” between values parts separate entries of the source, which are not always exact repeats. Identical values can stand only once. Ends that are not written are not given here. Peptide text beside a SMILES is read from it. * marks the point of attachment. Biotin = O=C1N[C@H]2[C@H](CS[C@H]2CCCCC(=O)*)N1

Experiments:
Experiment in all cases: SPR binding of MBP-PDZ analyte to immobilised biotinylated peptides
MAGI1-2/6 PDZ domain = molecular target: T1, MAGI1-2/6 PDZ domain (Mus musculus, UniProt Q6RHR9); settings: for norm. RU at 10 µM: SPR Req at 10 µM MBP-PDZ, normalised for analyte molecular weight and immobilised ligand
T1 construct: The cDNA encoding residues 448–572 and 613–752 of mouse MAGI-1 (UniProt acc.: Q6RHR9-1) encoding for MAGI1-2/6; made in house; host or cells: E. coli BL21 DE3
T1 sequence (Q6RHR9 448-572): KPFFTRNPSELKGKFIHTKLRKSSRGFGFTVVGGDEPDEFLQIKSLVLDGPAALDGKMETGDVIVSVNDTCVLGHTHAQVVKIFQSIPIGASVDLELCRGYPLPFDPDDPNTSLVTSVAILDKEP
Experimental: (§1) We opted for the surface plasmon resonance (SPR) method to measure these 190 (19 proteins×2 peptide versions×5 PDZ constructs) interactions. In SPR various concentrations of “analytes” (here, PDZ domains fused to the Maltose Binding Protein (MBP)) flow over surfaces presenting attached “ligands” (here, biotinylated peptides). The amount of analyte interacting with the ligand is measured and quantified in response units (RU). The intensity of this signal is proportional to the binding strength of the assayed interaction (Figure 5A). K [drawing 13] were obtained using a 1∶1 interaction model. However, these calculated K [drawing 14] were rather inaccurate especially for weak interactions. Therefore, we preferred to rank the binding strengths of the 190 interactions using normalised RU signals at equilibrium ( [drawing 15] ) rather than K [drawing 16] (see Methods for details). These normalised [drawing 17] values were plotted in form of a heat map (Figure 5B).
(§2) The cDNA encoding residues 448–572 and 613–752 of mouse MAGI-1 (UniProt acc.: Q6RHR9-1) encoding for MAGI1-2/6 (100% identical to human MAGI1-2/6) and MAGI1-3/6 (99% identical to human MAGI1-3/6) PDZ domains, respectively, were inserted into the NcoI/KpnI sites of the pETM-41 expression vector (EMBL) containing a 6×His-MBP tag followed by a TEV protease cleavage site. A similar cloning strategy was adopted for cDNA bearing residues 997–1093, 1097–1193 and 997–1193 of human SCRIB (Uniprot acc.: Q14160-1) encoding for SCRIB-3/4, SCRIB-4/4 PDZ domains and SCRIB-34/4 tandem PDZ construct, respectively.
(§3) Data were collected on a Biacore 2000 instrument (Biacore AB/GE Healthcare Bio-Sciences Corp., Piscataway, NJ, USA) at 25 [drawing 74] C. SPR experiments (ligand immobilisation and binding measurements) have been performed as described in Fournane et al.. Briefly, biotinylated peptides (instead of GST-fused recombinant peptides) were immobilised on CM5 sensorchips on which Neutravidin was previously attached. The MBP-PDZ domain analyte was injected at 8 to 10 different concentrations ranging from 0 up to 30 [drawing 75] M. Data were processed using the BiaEvaluation 3.2 software (Biacore AB/GE Healthcare Bio-Sciences Corp.) using “double referencing” [78] in which sensorgrams were corrected for buffer effects and bulk refractive index changes.
(§4) The steady-state binding signal ( [drawing 76] ) was derived by averaging the signals in a five second window at equilibrium. Steady-state analysis was performed by fitting the average signal [drawing 77] as a function of total MBP-PDZ concentrations, assuming a simple 1∶1 interaction binding isotherm model. […] Reasons for this inaccuracy are likely to be the following: 1. As previously described, several repetitions of all the measurements are required to determine accurate K [drawing 81] . In our case, such repetitions were not achievable in reasonable time due to the large amount of interactions measured in this study. 2. The highest injected analyte concentration restricts the maximal K [drawing 82] (weakest interaction) that can be accurately obtained. 3. A K [drawing 83] is estimated based on a mathematical extrapolation of observed [drawing 84] signals leading to additional uncertainty. Based on these reasons, we considered the calculated K [drawing 85] not as accurate enough to be used for absolute binding strength comparison in this study. We rather performed a relative analysis of binding strengths using directly [drawing 86] signals which are not biased by any mathematical assumption. We focussed on [drawing 87] signals obtained at 10 [drawing 88] M MBP-PDZ concentration, which have been systematically measured in duplicate. The [drawing 89] signal is directly proportional to the molecular weight of the analyte and the amount of immobilised ligand. Therefore, the [drawing 90] signals were normalised taking those into account before being used for binding strength comparison. […]

MAGI1-3/6 PDZ domain = molecular target: T2, MAGI1-3/6 PDZ domain (Mus musculus, UniProt Q6RHR9); settings: for Kd: tentative KD, SPR Biacore 2000, 25 C, steady state, 1:1 binding isotherm, MBP-PDZ 0-30 µM, to be considered with caution; for norm. RU at 10 µM: SPR Req at 10 µM MBP-PDZ, normalised for analyte molecular weight and immobilised ligand
T2 construct: The cDNA encoding residues 448–572 and 613–752 of mouse MAGI-1 (UniProt acc.: Q6RHR9-1); made in house; host or cells: E. coli BL21 DE3
T2 sequence (Q6RHR9 613-752): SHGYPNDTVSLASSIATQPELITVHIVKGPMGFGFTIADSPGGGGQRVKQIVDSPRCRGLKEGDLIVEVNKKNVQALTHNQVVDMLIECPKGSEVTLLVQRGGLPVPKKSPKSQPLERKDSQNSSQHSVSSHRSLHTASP
Experimental: as §1, §2, §3, §4

SCRIB-3/4 PDZ domain = molecular target: T3, SCRIB-3/4 PDZ domain (Homo sapiens, UniProt Q14160); settings: for Kd: tentative KD, SPR Biacore 2000, 25 C, steady state, 1:1 binding isotherm, MBP-PDZ 0-30 µM, to be considered with caution; for norm. RU at 10 µM: SPR Req at 10 µM MBP-PDZ, normalised for analyte molecular weight and immobilised ligand
T3 construct: cDNA bearing residues 997–1093, 1097–1193 and 997–1193 of human SCRIB (Uniprot acc.: Q14160-1); made in house; host or cells: E. coli BL21 DE3
T3 sequence (Q14160 997-1093 isoform Q14160-1): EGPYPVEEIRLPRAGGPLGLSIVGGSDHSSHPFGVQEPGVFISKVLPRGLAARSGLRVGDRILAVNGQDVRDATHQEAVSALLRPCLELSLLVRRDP
Experimental: as §1, §2, §3, §4

[1] = molecular target: T4, SCRIB-34/4 tandem PDZ construct (Homo sapiens, UniProt Q14160); settings: for Kd: tentative KD, SPR Biacore 2000, 25 C, steady state, 1:1 binding isotherm, MBP-PDZ 0-30 µM, to be considered with caution; for norm. RU at 10 µM: SPR Req at 10 µM MBP-PDZ, normalised for analyte molecular weight and immobilised ligand
T4 construct: residues 997–1093, 1097–1193 and 997–1193 of human SCRIB (Uniprot acc.: Q14160-1); made in house; host or cells: E. coli BL21 DE3
T4 sequence (Q14160 997-1193 isoform Q14160-1): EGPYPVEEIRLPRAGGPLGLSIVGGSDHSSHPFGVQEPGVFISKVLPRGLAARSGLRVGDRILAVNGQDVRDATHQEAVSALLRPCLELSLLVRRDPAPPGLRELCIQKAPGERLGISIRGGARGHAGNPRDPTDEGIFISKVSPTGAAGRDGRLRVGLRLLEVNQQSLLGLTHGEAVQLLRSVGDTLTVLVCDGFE
Experimental: as §1, §2, §3, §4

SCRIB-4/4 PDZ domain = molecular target: T5, SCRIB-4/4 PDZ domain (Homo sapiens, UniProt Q14160); settings: for Kd: tentative KD, SPR Biacore 2000, 25 C, steady state, 1:1 binding isotherm, MBP-PDZ 0-30 µM, to be considered with caution; for norm. RU at 10 µM: SPR Req at 10 µM MBP-PDZ, normalised for analyte molecular weight and immobilised ligand
T5 construct: residues 997–1093, 1097–1193 and 997–1193 of human SCRIB (Uniprot acc.: Q14160-1); made in house; host or cells: E. coli BL21 DE3
T5 sequence (Q14160 1097-1193 isoform Q14160-1): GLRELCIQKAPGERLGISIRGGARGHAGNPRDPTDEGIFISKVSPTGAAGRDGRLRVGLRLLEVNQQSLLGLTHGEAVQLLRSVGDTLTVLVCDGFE
Experimental: as §1, §2, §3, §4

Row | Compound | Kd (MAGI1-2/6 PDZ domain; tentative KD, SPR Biacore 2000, 25 C, steady state, 1:1 binding isotherm, MBP-PDZ 0-30 µM, to be considered with caution) | Kd (MAGI1-3/6 PDZ domain) | Kd (SCRIB-3/4 PDZ domain) | Kd [1] | Kd (SCRIB-4/4 PDZ domain) | norm. RU at 10 µM (MAGI1-2/6 PDZ domain) | norm. RU at 10 µM (MAGI1-3/6 PDZ domain) | norm. RU at 10 µM (SCRIB-3/4 PDZ domain) | norm. RU at 10 µM [1] | norm. RU at 10 µM (SCRIB-4/4 PDZ domain)
1 | CC(C)[C@H](NC(=O)[C@H](CCC(=O)O)NC(=O)[C@@H](NC(=O)[C@H](CCC(=O)O)NC(=O)[C@H](CCCNC(=N)N)NC(=O)CNC(=O)[C@H](C)NC(=O)CNC(=O)[C@H](CO)NC(=O)CNC(=O)CCCC[C@@H]1SC[C@@H]2NC(=O)N[C@@H]21)[C@@H](C)O)C(=O)O [TAX1_05] (Biotin-GSGAGRETEV-OH) | 33 µM | 75 µM | 96 µM | 1 µM | 50 µM |  |  |  |  | 
2 | C[C@H](NC(=O)[C@@H](NC(=O)CCCC[C@@H]1SC[C@@H]2NC(=O)N[C@@H]21)[C@@H](C)O)C(=O)N[C@@H](CO)C(=O)N1CCC[C@H]1C(=O)N[C@@H](C)C(=O)N[C@@H](CCCCN)C(=O)N[C@@H](CCC(=O)O)C(=O)N[C@H](C(=O)N[C@@H](CO)C(=O)N[C@@H](Cc1ccccc1)C(=O)O)[C@@H](C)O [GLUT7_10] (Biotin-TASPAKETSF-OH) |  |  |  |  |  | 0.0 RU | 0.0 RU | 57.5 RU | 70.8 RU | 0.0 RU
3 | EKPIDSETKM [GLAST_10, long peptide: last ten wild type C-terminal residues of Excitatory amino acid transporter 1, biotinylated] |  |  |  |  |  | 0.0 RU | 0.0 RU | 0.0 RU | 0.0 RU | 0.0 RU
4 | CC(C)[C@H](NC(=O)[C@@H](NC(=O)[C@@H](NC(=O)[C@H](CCC(=O)O)NC(=O)[C@H](CCCCN)NC(=O)[C@H](CO)NC(=O)[C@H](CC(N)=O)NC(=O)[C@H](CCCNC(=N)N)NC(=O)[C@H](CCCCN)NC(=O)[C@@H](NC(=O)CCCC[C@@H]1SC[C@@H]2NC(=O)N[C@@H]21)C(C)C)[C@@H](C)O)C(C)C)C(=O)O [MARCH3_10] (Biotin-VKRNSKETVV-OH) |  |  |  |  |  | 54.7 RU | 10.9 RU | 22.7 RU | 88.1 RU | 0.0 RU
5 | RSSRTRRETQV [16E6L/V, reference compound] |  | 69 µM and 76 µM and 202 µM | 18 µM and 41 µM and 32 µM | 3 µM and 4 µM | 47 µM and 55 µM |  |  |  |  | 
